Laboratory results published in patent publication EP4745135A1 (Gluetacs Therapeutics (Shanghai) Co., Ltd., priority 2023, dated 2025).

Assays:
GSPT1 = assay: Western blot, degradation of substrate protein in hPBMCs; assay type: cell-based, Human
Description: (§1) Conventional Western blot assay was performed to evaluate the effects of the compounds of the present disclosure on the expression of target proteins in cells. • (1) Cell Seeding and Protein Harvesting: Human peripheral blood mononuclear cells (hPBMCs) at a density of 1×10^6 cells/mL were thawed according to the PBMC Recovery Protocol (Milecell Biotechnologies Inc, Shanghai). […] After 24 hours of compounds treatment, cells were harvested and lysed in RIPA protein lysate containing protease inhibitors on ice for 30 min, followed by centrifugation. The supernatant was aspirated as the extracted total cell protein. The protein concentration of the supernatant was determined using the conventional BCA (Bicinchoninic Acid) assay. • (2) To the collected supernatant, 5X SDS sample loading buffer was added, followed by denaturation at 95°C for 5 minutes. The denatured samples were then separated by SDS-PAGE electrophoresis on a polyacrylamide gel, transferred onto a nitrocellulose membrane (0.45 µm NC membrane), blocked with blocking buffer at room temperature for 1 hour, and subjected to antibody incubation and development procedures according to the antibody manufacturer's instructions (Cell Signaling Technology Company).
(§2) Half-Maximal Degradation Concentration value (the drug concentration required for degrading proteins by 50%, abbreviated as DC50) reads method: comparing the grayscale values of Western blot bands from drug-treated samples with those from blank DMSO-treated controls, and identifying the drug concentration range at which the grayscale value is half that of the DMSO-treated control bands.
(§3) DC50 values can be calculated using ImageJ software to measure grayscale values of Western blot bands from drug-treated samples. The concentration-response curve is fitted to estimate the drug concentration corresponding to half the grayscale value.
(§4) Target protein remaining (%) refers to the percentage of target protein remaining in cells after treatment with protein degrader compounds.
(§5) Calculation method for target protein remaining (%): Use ImageJ software to measure grayscale values of Western blot bands from drug (protein degrader)-treated samples. The grayscale value of drug-treated bands is divided by that of internal control protein bands, and the resulting quotient is normalized to obtain the relative percentage of remaining target protein after protein degrader treatment.
(§6) Target protein degradation rate (%) = 1−target protein remaining (%). [formula]

WEE1 = molecular target: T1, WEE1 (Homo sapiens, UniProt P30291+Q96SW2); assay: as above; assay type: cell-based
T1 construct: effects of the compounds of the present disclosure on the expression of target proteins in cells; endogenous in cells; host or cells: human PBMCs (Milecell Biotechnologies)
Description: as §1, §2, §3, §4, §5, §6

IKZF2 = molecular target: T2, IKZF2 (Homo sapiens, UniProt Q96SW2+Q9UKS7); assay: as above; assay type: cell-based
T2 construct: effects of the compounds of the present disclosure on the expression of target proteins in cells; endogenous in cells; host or cells: human PBMCs (Milecell Biotechnologies)
Description: as §1, §2, §3, §4, §5, §6

IKZF3 = molecular target: T3, IKZF3 (Homo sapiens, UniProt Q96SW2+Q9UKT9); assay: as above; assay type: cell-based
T3 construct: effects of the compounds of the present disclosure on the expression of target proteins in cells; endogenous in cells; host or cells: human PBMCs (Milecell Biotechnologies)
Description: as §1, §2, §3, §4, §5, §6

IKZF1 = molecular target: T4, IKZF1 (Homo sapiens, UniProt Q13422+Q96SW2); assay: as above; assay type: cell-based
T4 construct: effects of the compounds of the present disclosure on the expression of target proteins in cells; endogenous in cells; host or cells: human PBMCs (Milecell Biotechnologies)
Description: as §1, §2, §3, §4, §5, §6

CK1α = molecular target: T5, CK1α (Homo sapiens, UniProt P48729+Q96SW2); assay: as above; assay type: cell-based
T5 construct: effects of the compounds of the present disclosure on the expression of target proteins in cells; endogenous in cells; host or cells: human PBMCs (Milecell Biotechnologies)
Description: as §1, §2, §3, §4, §5, §6

[1] = molecular target: T6, human Cereblon WT GST-tagged protein (Homo sapiens, UniProt Q96SW2); assay: CRBN-binding affinity, HTRF (CEREBLON BINDING kit); settings: for inhibition at 0.5 µM: read-out: Inhibition Rate at 0.5 µM (%); for inhibition at 2 µM: read-out: Inhibition Rate at 2 µM (%)
T6 construct: purchased CISBIO 64BDCRBNPEH

[2] = Western blot, 24 hours of compound treatment, compounds tested at 50 nM and 500 nM (concentration for the table not stated)
[3] = 24 hours treatment, compounds at 50 nM and 500 nM (concentration behind the class not stated)

T5 sequence (P48729 whole entry): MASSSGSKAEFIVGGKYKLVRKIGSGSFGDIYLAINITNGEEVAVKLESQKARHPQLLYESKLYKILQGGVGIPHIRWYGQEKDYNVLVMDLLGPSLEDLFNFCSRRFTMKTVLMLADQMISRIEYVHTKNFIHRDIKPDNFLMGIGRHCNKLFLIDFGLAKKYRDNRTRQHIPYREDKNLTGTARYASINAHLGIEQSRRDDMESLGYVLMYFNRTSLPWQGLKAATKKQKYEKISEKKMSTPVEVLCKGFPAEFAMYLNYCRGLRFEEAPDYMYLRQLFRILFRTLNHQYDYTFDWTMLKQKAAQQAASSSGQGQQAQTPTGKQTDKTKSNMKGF
T5 sequence (Q96SW2 whole entry): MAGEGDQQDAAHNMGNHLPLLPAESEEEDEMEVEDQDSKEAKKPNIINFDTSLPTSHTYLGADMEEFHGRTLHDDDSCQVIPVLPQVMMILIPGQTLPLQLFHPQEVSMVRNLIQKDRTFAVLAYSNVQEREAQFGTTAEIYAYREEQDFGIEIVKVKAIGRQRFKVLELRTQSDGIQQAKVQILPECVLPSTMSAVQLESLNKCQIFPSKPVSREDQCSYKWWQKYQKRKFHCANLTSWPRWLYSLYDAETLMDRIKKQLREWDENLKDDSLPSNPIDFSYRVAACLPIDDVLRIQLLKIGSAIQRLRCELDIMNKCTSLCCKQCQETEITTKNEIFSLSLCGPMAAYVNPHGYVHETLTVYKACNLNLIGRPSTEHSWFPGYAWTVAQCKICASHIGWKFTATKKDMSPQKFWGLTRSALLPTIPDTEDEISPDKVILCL
T5 sequence (Q16531 whole entry partner): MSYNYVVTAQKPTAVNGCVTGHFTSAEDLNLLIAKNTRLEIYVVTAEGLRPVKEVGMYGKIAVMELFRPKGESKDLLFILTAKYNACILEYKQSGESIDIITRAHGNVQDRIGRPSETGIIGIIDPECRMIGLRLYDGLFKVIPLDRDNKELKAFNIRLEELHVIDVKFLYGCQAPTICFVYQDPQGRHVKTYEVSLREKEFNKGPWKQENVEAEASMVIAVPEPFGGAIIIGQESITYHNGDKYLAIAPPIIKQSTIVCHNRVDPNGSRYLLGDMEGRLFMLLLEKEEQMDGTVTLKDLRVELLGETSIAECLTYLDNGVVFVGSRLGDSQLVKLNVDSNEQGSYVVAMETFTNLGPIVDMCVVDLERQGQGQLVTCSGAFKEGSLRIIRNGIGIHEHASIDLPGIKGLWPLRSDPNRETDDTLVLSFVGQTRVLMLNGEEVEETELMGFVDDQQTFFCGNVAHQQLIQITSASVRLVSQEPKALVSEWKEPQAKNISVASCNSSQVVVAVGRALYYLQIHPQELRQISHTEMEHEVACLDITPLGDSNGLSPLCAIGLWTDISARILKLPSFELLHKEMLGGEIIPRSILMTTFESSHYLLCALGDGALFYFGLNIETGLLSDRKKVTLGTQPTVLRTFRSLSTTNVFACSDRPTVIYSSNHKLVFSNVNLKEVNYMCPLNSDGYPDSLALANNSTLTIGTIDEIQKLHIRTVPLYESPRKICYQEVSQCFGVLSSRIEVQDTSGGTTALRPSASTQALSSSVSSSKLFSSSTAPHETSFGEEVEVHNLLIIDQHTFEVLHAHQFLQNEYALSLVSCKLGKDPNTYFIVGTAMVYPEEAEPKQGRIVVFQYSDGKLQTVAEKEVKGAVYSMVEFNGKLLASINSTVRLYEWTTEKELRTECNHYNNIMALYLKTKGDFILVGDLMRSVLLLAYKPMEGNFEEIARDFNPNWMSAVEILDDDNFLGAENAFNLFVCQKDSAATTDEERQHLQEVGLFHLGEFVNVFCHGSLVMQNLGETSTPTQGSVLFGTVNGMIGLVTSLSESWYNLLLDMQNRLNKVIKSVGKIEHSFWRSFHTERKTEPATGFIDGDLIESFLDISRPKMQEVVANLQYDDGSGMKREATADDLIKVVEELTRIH
T2 sequence (Q9UKS7 whole entry): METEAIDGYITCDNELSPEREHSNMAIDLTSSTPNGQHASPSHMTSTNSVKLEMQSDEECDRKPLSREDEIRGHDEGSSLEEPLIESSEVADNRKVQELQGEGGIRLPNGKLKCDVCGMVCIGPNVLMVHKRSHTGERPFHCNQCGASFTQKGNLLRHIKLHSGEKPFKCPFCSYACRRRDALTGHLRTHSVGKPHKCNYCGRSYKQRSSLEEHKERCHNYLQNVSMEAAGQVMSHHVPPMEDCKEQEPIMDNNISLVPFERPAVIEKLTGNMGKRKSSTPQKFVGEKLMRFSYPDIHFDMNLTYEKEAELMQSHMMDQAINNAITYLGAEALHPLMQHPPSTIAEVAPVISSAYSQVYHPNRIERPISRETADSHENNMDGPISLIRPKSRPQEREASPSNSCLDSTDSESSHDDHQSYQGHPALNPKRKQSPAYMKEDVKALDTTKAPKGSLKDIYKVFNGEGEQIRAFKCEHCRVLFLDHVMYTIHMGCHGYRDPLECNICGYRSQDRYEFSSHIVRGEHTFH
T2 sequence (Q96SW2 whole entry): as the sequence (Q96SW2 whole entry) above
T2 sequence (Q16531 whole entry partner): as the sequence (Q16531 whole entry partner) above
T1 sequence (P30291 whole entry): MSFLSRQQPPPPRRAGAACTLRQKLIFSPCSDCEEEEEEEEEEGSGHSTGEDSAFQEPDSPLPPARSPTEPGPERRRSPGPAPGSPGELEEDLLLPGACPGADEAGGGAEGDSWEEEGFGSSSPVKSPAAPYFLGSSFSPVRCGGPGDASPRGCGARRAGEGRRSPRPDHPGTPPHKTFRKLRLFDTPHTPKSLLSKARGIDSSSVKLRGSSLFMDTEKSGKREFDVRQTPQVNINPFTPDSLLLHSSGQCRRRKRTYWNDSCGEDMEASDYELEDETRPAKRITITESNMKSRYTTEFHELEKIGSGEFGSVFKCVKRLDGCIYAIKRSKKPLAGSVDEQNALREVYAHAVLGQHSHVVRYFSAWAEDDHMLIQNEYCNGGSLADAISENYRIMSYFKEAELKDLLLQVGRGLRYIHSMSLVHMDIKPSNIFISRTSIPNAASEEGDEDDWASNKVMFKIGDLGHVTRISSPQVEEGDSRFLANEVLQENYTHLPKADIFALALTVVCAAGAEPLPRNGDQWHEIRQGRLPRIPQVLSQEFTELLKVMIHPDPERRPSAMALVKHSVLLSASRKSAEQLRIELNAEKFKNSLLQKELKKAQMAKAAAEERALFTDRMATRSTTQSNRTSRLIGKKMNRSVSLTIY
T1 sequence (Q96SW2 whole entry): as the sequence (Q96SW2 whole entry) above
T1 sequence (Q16531 whole entry partner): as the sequence (Q16531 whole entry partner) above
T3 sequence (Q9UKT9 whole entry): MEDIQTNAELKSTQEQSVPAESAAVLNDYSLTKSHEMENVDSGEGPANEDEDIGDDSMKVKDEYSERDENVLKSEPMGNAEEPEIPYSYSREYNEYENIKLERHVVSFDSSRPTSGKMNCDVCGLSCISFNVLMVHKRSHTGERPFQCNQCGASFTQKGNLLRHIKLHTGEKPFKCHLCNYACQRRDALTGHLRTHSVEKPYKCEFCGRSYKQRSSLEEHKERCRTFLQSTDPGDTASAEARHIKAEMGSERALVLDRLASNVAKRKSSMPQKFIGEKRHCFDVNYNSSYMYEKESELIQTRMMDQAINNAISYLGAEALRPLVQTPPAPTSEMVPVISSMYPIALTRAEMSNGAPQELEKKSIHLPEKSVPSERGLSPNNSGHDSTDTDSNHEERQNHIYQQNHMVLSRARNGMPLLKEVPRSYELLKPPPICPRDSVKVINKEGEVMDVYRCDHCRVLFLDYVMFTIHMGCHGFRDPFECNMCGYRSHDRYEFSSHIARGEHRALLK
T3 sequence (Q96SW2 whole entry): as the sequence (Q96SW2 whole entry) above
T3 sequence (Q16531 whole entry partner): as the sequence (Q16531 whole entry partner) above
T6 sequence (Q96SW2 whole entry): as the sequence (Q96SW2 whole entry) above
T4 sequence (Q13422 whole entry): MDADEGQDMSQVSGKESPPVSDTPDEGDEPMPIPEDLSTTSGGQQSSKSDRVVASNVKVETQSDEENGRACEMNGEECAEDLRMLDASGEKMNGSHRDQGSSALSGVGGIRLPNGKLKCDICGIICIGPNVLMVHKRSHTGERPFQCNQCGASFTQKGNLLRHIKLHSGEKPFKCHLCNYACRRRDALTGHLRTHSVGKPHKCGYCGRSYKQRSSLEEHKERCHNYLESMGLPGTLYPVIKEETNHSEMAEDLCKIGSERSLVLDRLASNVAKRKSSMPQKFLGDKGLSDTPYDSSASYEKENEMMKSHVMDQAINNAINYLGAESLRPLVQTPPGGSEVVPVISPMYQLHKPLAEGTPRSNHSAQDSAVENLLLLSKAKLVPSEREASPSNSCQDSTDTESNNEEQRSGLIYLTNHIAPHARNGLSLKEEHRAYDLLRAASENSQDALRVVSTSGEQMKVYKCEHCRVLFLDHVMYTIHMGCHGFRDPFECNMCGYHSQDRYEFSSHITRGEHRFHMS
T4 sequence (Q96SW2 whole entry): as the sequence (Q96SW2 whole entry) above
T4 sequence (Q16531 whole entry partner): as the sequence (Q16531 whole entry partner) above

inhibition at 0.5 µM [1]	inhibition at 2 µM [1]	Compound	GSPT1 substrate protein remaining % (GSPT1; [2])	Wee1 substrate protein remaining % (WEE1; [2])	IKZF2 substrate protein remaining % (IKZF2; [2])	IKZF3 substrate protein remaining % (IKZF3; [2])	IKZF 1 substrate protein remaining % (IKZF1; [2])	CK1α substrate protein remaining % (CK1α; [2])	GSPT1 substrate protein remaining % (GSPT1; [3])	Wee1 substrate protein remaining % (WEE1; [3])	IKZF2 substrate protein remaining % (IKZF2; [3])	IKZF3 substrate protein remaining % (IKZF3; [3])	IKZF 1 substrate protein remaining % (IKZF1; [3])	CK1α substrate protein remaining % (CK1α; [3])
60 to 80%	80 to 100%	O=C1CCC(N2Cc3c(CN4CCN(c5ccnc(Cl)c5Br)CC4)cccc3C2=S)C(=O)N1 (centres unmarked) [GT-08734, 3-(4-((4-(3-bromo-2-chloropyridin-4-yl)piperazin-1-yl)methyl)-1-thioxoisoindolin-2-yl)piperidine-2,6-dione]	A (0% ≤ substrate protein remaining % ≤ 80%)	A (0% ≤ substrate protein remaining % ≤ 80%)	B (80%< substrate protein remaining %≤ 100%)	B (80%< substrate protein remaining %≤ 100%)	B (80%< substrate protein remaining %≤ 100%)	B (80%< substrate protein remaining %≤ 100%)						
53 to 60%	80 to 100%	O=C1CCC(N2Cc3c(CN4CCN(c5cccnc5)CC4)cccc3C2=S)C(=O)N1 (centres unmarked) [GT-08706, 3-(4-((4-(pyridin-3-yl)piperazin-1-yl)methyl)-1-thioxoisoindolin-2-yl)piperidine-2,6-dione]	A (0% ≤ substrate protein remaining % ≤ 80%)	A (0% ≤ substrate protein remaining % ≤ 80%)	A (0% ≤ substrate protein remaining % ≤ 80%)	A (0% ≤ substrate protein remaining % ≤ 80%)	B (80%< substrate protein remaining %≤ 100%)	B (80%< substrate protein remaining %≤ 100%)						
53 to 60%	80 to 100%	Cc1nc(C2=CCN(Cc3cccc4c3CN(C3CCC(=O)NC3=O)C4=S)CC2)c2c3c(sc2n1)CCC3 (centres unmarked) [GT-08964, 3-(4-((4-(2-methyl-6,7-dihydro-5H-cyclopenta[4,5]thieno[2,3-d]pyrimidin-4-yl)-3,6-dihydropyridin-1(2H)-yl)methyl)-1-thioxoisoindolin-2-yl)piperidine-2,6-dione]							B (80%< substrate protein remaining %≤ 100%)	A (0% ≤ substrate protein remaining % ≤ 80%)	B (80%< substrate protein remaining %≤ 100%)	B (80%< substrate protein remaining %≤ 100%)	B (80%< substrate protein remaining %≤ 100%)	B (80%< substrate protein remaining %≤ 100%)
60 to 80%	80 to 100%	O=C1CCC(N2Cc3c(CN4CCN(c5ccnc(Cl)c5Cl)CC4)cccc3C2=S)C(=O)N1 (centres unmarked) [GT-08735, 3-(4-((4-(2,3-dichloropyridin-4-yl)piperazin-1-yl)methyl)-1-thioxoisoindolin-2-yl)piperidine-2,6-dione]	B (80%< substrate protein remaining %≤ 100%)	A (0% ≤ substrate protein remaining % ≤ 80%)	B (80%< substrate protein remaining %≤ 100%)	B (80%< substrate protein remaining %≤ 100%)	B (80%< substrate protein remaining %≤ 100%)	B (80%< substrate protein remaining %≤ 100%)						
40 to 53%	60 to 80%	O=C1CCC(N2Cc3c(CN4CCN(c5nccc(Cl)c5Br)CC4)cccc3C2=S)C(=O)N1 (centres unmarked) [GT-08804, 3-(4-((4-(3-bromo-4-chloropyridin-2-yl)piperazin-1-yl)methyl)-1-thioxoisoindolin-2-yl)piperidine-2,6-dione]	B (80%< substrate protein remaining %≤ 100%)	A (0% ≤ substrate protein remaining % ≤ 80%)	B (80%< substrate protein remaining %≤ 100%)	B (80%< substrate protein remaining %≤ 100%)	B (80%< substrate protein remaining %≤ 100%)	B (80%< substrate protein remaining %≤ 100%)						
53 to 60%	80 to 100%	Cc1nc(N2CCN(Cc3ccc4c(c3)CN(C3CCC(=O)NC3=O)C4=S)CC2)c2c3c(sc2n1)CCCC3 (centres unmarked) [GT-09299, 3-(5-((4-(2-methyl-5,6,7,8-tetrahydrobenzo[4,5]thieno[2,3-d]pyrimidin-4-yl)piperazin-1-yl)methyl)-1-thioxoisoindolin-2-yl)piperidine-2,6-dione]							B (80%< substrate protein remaining %≤ 100%)	B (80%< substrate protein remaining %≤ 100%)	A (0% ≤ substrate protein remaining % ≤ 80%)	A (0% ≤ substrate protein remaining % ≤ 80%)	B (80%< substrate protein remaining %≤ 100%)	B (80%< substrate protein remaining %≤ 100%)
60 to 80%	80 to 100%	O=C1CCC(N2Cc3c(CN4CCN(c5ccc(Cl)nc5)CC4)cccc3C2=S)C(=O)N1 (centres unmarked) [GT-08723, 3-(4-((4-(6-chloropyridin-3-yl)piperazin-1-yl)methyl)-1-thioxoisoindolin-2-yl)piperidine-2,6-dione]	A (0% ≤ substrate protein remaining % ≤ 80%)	A (0% ≤ substrate protein remaining % ≤ 80%)	A (0% ≤ substrate protein remaining % ≤ 80%)	A (0% ≤ substrate protein remaining % ≤ 80%)	B (80%< substrate protein remaining %≤ 100%)	B (80%< substrate protein remaining %≤ 100%)						
53 to 60%	60 to 80%	COc1ccc(N2CCN(Cc3cccc4c3CN(C3CCC(=O)NC3=O)C4=S)CC2)cc1 (centres unmarked) [GT-08495, 3-(4-((4-(4-methoxyphenyl)piperazin-1-yl)methyl)-1-thioxoisoindolin-2-yl)piperidine-2,6-dione]	A (0% ≤ substrate protein remaining % ≤ 80%)	A (0% ≤ substrate protein remaining % ≤ 80%)	A (0% ≤ substrate protein remaining % ≤ 80%)	B (80%< substrate protein remaining %≤ 100%)	A (0% ≤ substrate protein remaining % ≤ 80%)	B (80%< substrate protein remaining %≤ 100%)						
60 to 80%	80 to 100%	O=C1CCC(N2Cc3cc(CN4CCN(c5c(Cl)ccnc5Cl)CC4)ccc3C2=S)C(=O)N1 (centres unmarked) [GT-09232, 3-(5-((4-(2,4-dichloropyridin-3-yl)piperazin-1-yl)methyl)-1-thioxoisoindolin-2-yl)piperidine-2,6-dione]	A (0% ≤ substrate protein remaining % ≤ 80%)	A (0% ≤ substrate protein remaining % ≤ 80%)	A (0% ≤ substrate protein remaining % ≤ 80%)	A (0% ≤ substrate protein remaining % ≤ 80%)	A (0% ≤ substrate protein remaining % ≤ 80%)	A (0% ≤ substrate protein remaining % ≤ 80%)						

Compound	inhibition at 0.5 µM [1]	inhibition at 2 µM [1]	GSPT1 substrate protein remaining % (GSPT1; [2])	Wee1 substrate protein remaining % (WEE1; [2])	IKZF2 substrate protein remaining % (IKZF2; [2])	IKZF3 substrate protein remaining % (IKZF3; [2])	IKZF 1 substrate protein remaining % (IKZF1; [2])	CK1α substrate protein remaining % (CK1α; [2])	GSPT1 substrate protein remaining % (GSPT1; [3])	Wee1 substrate protein remaining % (WEE1; [3])	IKZF2 substrate protein remaining % (IKZF2; [3])	IKZF3 substrate protein remaining % (IKZF3; [3])	IKZF 1 substrate protein remaining % (IKZF1; [3])	CK1α substrate protein remaining % (CK1α; [3])
CC1(C)CCC(CN2C3CC2CN(Cc2cccc4c2CN(C2CCC(=O)NC2=O)C4=S)C3)=C(c2ccc(Cl)cc2)C1 (centres unmarked) [GT-08271, 3-(4-((6-((4'-chloro-5,5-dimethyl-3,4,5,6-tetrahydro-[1,1'-biphenyl]-2-yl)methyl)-3,6-diazabicyclo[3.1.1]heptan-3-yl)methyl)-1-thioxoisoindolin-2-yl)piperidine-2,6-dione]	30 to 40%	60 to 80%	A (0% ≤ substrate protein remaining % ≤ 80%)	A (0% ≤ substrate protein remaining % ≤ 80%)	B (80%< substrate protein remaining %≤ 100%)	B (80%< substrate protein remaining %≤ 100%)	B (80%< substrate protein remaining %≤ 100%)	A (0% ≤ substrate protein remaining % ≤ 80%)						
